The test system of data set [1] is Enterococcus faecalis PIU 1967. The data set is described as follows: Assay B: in vitro antibacterial activity, broth microdilution MIC (NCCLS). It is filed as cell-based. The conditions noted are these: Table 2, Assay B, cation-adjusted Mueller Hinton broth, 35° C., 16 to 20 hr; code B = Enterococcus faecalis PIU 1967; unit assumed. The method in brief: (§1)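 NCCLS broth microdilution with two-fold dilutions in cation-adjusted Mueller Hinton broth, inoculum about 5×10^5 CFU/mL, 35 °C in ambient air for 16-20 h; MIC read visually as lowest concentration completely inhibiting growth. S. pneumoniae: 3% lysed horse blood, 20-24 h; H. influenzae: 5 g/L yeast extract, 0.3 mmol/L hematin, 15 mg/L NAD, 20-24 h.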

A further data set has as its system Escherichia coli JUHL. The data set is described as above. The conditions noted are these: Table 2, Assay B, cation-adjusted Mueller Hinton broth, 35° C., 16 to 20 hr; code D = Escherichia coli JUHL; unit assumed. It is filed as cell-based. The method in brief: as §1
Data set [2] has as its system Haemophilus influenzae DILL AMP R. The data set is described as above. It is filed as cell-based. The conditions noted are these: Table 2, Assay B, Mueller Hinton broth with yeast extract, hematin and NAD, 20 to 24 hr; code E = Haemophilus influenzae DILL AMP R; unit assumed. The method in brief:
as §1

Data set [3] has as its system Staphylococcus aureus ATCC 6538P. Described as above. It is filed as cell-based. The conditions noted are these: Table 2, Assay B, cation-adjusted Mueller Hinton broth, 35° C., 16 to 20 hr; code A = Staphylococcus aureus ATCC 6538P; unit assumed. The method in brief:
as §1

Data set [4] relates to Streptococcus pneumoniae ATCC 6303. Described as above. The conditions noted are these: Table 2, Assay B, Mueller Hinton broth with 3% lysed horse blood, 20 to 24 hr; code F = Streptococcus pneumoniae ATCC 6303; unit assumed. Type of data set: cell-based. The method in brief:
as §1

The structures appear in SMILES notation. Structures can show the parent of a compound that is named as a salt.

For `Br.COc1c(-c2cc3c(s2)CCNC3C)ccc2c(=O)c(C(=O)O)cn(C3CC3)c12` (centres unmarked), the melting point is 202 to 205 °C (dec.).

`CC1NCCc2cc(-c3ccc4c(=O)c(C(=O)O)cn(C5CC5)c4n3)sc21.Cl` (centres unmarked) displayed a melting point of 310 to 312 °C.

Take `Br.CC1(C)CNCc2cc(-c3ccc4c(=O)c(C(=O)O)cn(C5CC5)c4n3)sc21`: the melting point was > 300 °C (dec.).

Turning to `Br.CC1(C)CNCc2cc(-c3ccc4c(=O)c(C(=O)O)cn(C5CC5)c4c3)sc21`, the melting point was > 300 °C (dec.).

For the compound `Br.COc1c(-c2cc3c(s2)C(C)(C)CNC3)ccc2c(=O)c(C(=O)O)cn(C3CC3)c12`, the melting point was 212 to 217 °C (dec.).

On to `Br.CC1(C)CNCc2cc(-c3nc4c(cc3F)c(=O)c(C(=O)O)cn4C3CC3)sc21`, for which the melting point was 258 to 262 °C (dec.).

`CC1CNCc2sc(-c3ccc4c(=O)c(C(=O)O)cn(C5CC5)c4c3)cc21.Cl` (centres unmarked): the melting point lay in the range of 295 to 298 °C.

`COc1c(-c2cc3c(s2)CNCC3C)ccc2c(=O)c(C(=O)O)cn(C3CC3)c12.Cl` (centres unmarked): the melting point lay in the range of 254 to 259 °C.

In the case of `CC1CNCc2sc(-c3nc4c(cc3F)c(=O)c(C(=O)O)cn4C3CC3)cc21.Cl` (centres unmarked), the melting point lay within 288 to 290 °C.

The compound `Cl.O=C(O)c1cn(C2CC2)c2nc(-c3cc4c(s3)CNCC4)ccc2c1=O` showed a melting point of 298 to 300 °C.

In turn, `COc1c(-c2cc3c(s2)CCC/C3=N\OCc2cccnc2)ccc2c(=O)c(C(=O)O)cn(C3CC3)c12` (as salt: hydrochloride) [Example 182, 1-cyclopropyl-8-methoxy-4-oxo-7-((4E)-4-((3-pyridinylmethoxy)imino)-4,5,6,7-tetrahydro-1-benzothien-2-yl)-1,4-dihydro-3-quinolinecarboxylic acid] showed a melting point of 181 to 183 °C.

In turn, `COc1c(-c2cc3c(s2)CCC/C3=N\OCc2ccccn2)ccc2c(=O)c(C(=O)O)cn(C3CC3)c12` (as salt: hydrochloride) [Example 183, 1-cyclopropyl-8-methoxy-4-oxo-7-((4E)-4-((2-pyridinylmethoxy)imino)-4,5,6,7-tetrahydro-1-benzothien-2-yl)-1,4-dihydro-3-quinolinecarboxylic acid] gave a melting point of 178 to 179 °C.

As to `COc1c(-c2cc3c(s2)CCCC3O)ccc2c(=O)c(C(=O)O)cn(C3CC3)c12` (centres unmarked) [Example 38, 1-cyclopropyl-7-(4-hydroxy-4,5,6,7-tetrahydro-1-benzothien-2-yl)-8-methoxy-4-oxo-1,4-dihydro-3-quinolinecarboxylic acid], the melting point lay within 237 to 239 °C.

`COc1c(-c2cc3c(s2)C(O)CCC3)ccc2c(=O)c(C(=O)O)cn(C3CC3)c12` (centres unmarked) [Example 41, 1-cyclopropyl-7-(7-hydroxy-4,5,6,7-tetrahydro-1-benzothien-2-yl)-8-methoxy-4-oxo-1,4-dihydro-3-quinolinecarboxylic acid] registered a melting point of 238 to 240 °C.

`COc1c(-c2cc3c(s2)CCC(CO)=C3)ccc2c(=O)c(C(=O)O)cn(C3CC3)c12` [Example 44, 1-cyclopropyl-7-(5-(hydroxymethyl)-6,7-dihydro-1-benzothien-2-yl)-8-methoxy-4-oxo-1,4-dihydro-3-quinolinecarboxylic acid]: the melting point is 205 to 206 °C.

Turning to `COc1c(-c2cc3c(s2)CCCC3=O)ccc2c(=O)c(C(=O)O)cn(C3CC3)c12` [Example 50, 1-cyclopropyl-8-methoxy-4-oxo-7-(4-oxo-4,5,6,7-tetrahydro-1-benzothien-2-yl)-1,4-dihydro-3-quinolinecarboxylic acid], the melting point was in the range of 266 to 267 °C.

As for `COc1c(-c2cc3c(s2)C(N)CCC3)ccc2c(=O)c(C(=O)O)cn(C3CC3)c12.Cl` (centres unmarked) [Example 201, 7-(7-amino-4,5,6,7-tetrahydro-1-benzothien-2-yl)-1-cyclopropyl-8-methoxy-4-oxo-1,4-dihydro-3-quinolinecarboxylic acid hydrochloride], the melting point lay in the range of 174 to 178 °C. The Antibacterial Activity (MIC's), B in data set [1] turned out to be 0.06 µg/mL. The Antibacterial Activity (MIC's), D with Escherichia coli JUHL turned out to be 0.125 µg/mL. This compound showed an Antibacterial Activity (MIC's), E in data set [2] of 0.03 µg/mL. In data set [3], the Antibacterial Activity (MIC's), A was determined as 0.015 µg/mL. In data set [4], this compound displayed an Antibacterial Activity (MIC's), F of 0.03 µg/mL.

Regarding `CC1(C)CCc2cc(-c3ccc4c(=O)c(C(=O)O)cn(C5CC5)c4c3Cl)sc2C1N.Cl` (centres unmarked) [Example 347, 7-(7-amino-6,6-dimethyl-4,5,6,7-tetrahydro-1-benzothien-2-yl)-8-chloro-1-cyclopropyl-4-oxo-1,4-dihydroquinoline-3-carboxylic acid hydrochloride], the Antibacterial Activity (MIC's), B in data set [1] was found to be 0.25 µg/mL. In the data set on Escherichia coli JUHL, this compound registered an Antibacterial Activity (MIC's), D of 0.25 µg/mL. Further, in data set [2], the Antibacterial Activity (MIC's), E is 0.06 µg/mL. In data set [3], this compound displayed an Antibacterial Activity (MIC's), A of 0.03 µg/mL. For the same compound, in data set [4], the Antibacterial Activity (MIC's), F came to 0.125 µg/mL.

In turn, `COc1c(-c2cc3c(s2)C(N)C(C)(C)CC3)c(F)cc2c(=O)c(C(=O)O)cn(C3CC3)c12.Cl` (centres unmarked) [Example 348, 7-(7-amino-6,6-dimethyl-4,5,6,7-tetrahydro-1-benzothien-2-yl)-1-cyclopropyl-6-fluoro-8-methoxy-4-oxo-1,4-dihydroquinoline-3-carboxylic acid hydrochloride] showed an Antibacterial Activity (MIC's), B in data set [1] of 0.125 µg/mL. In the data set with Escherichia coli JUHL, this compound came in with an Antibacterial Activity (MIC's), D of 0.25 µg/mL. In data set [2], the Antibacterial Activity (MIC's), E was 0.06 µg/mL. Further, the Antibacterial Activity (MIC's), A in data set [3] was determined as 0.015 µg/mL. Moreover, the Antibacterial Activity (MIC's), F in data set [4] is 0.03 µg/mL.

Compound `Nc1cc(-c2cc3c(s2)C(N)CCC3)c(F)c2c1c(=O)c(C(=O)O)cn2C1CC1.O=C(O)C(F)(F)F` (centres unmarked) [Example 349, 5-amino-7-(7-amino-4,5,6,7-tetrahydro-1-benzothien-2-yl)-1-cyclopropyl-8-fluoro-4-oxo-1,4-dihydroquinoline-3-carboxylic acid trifluoroacetic acid salt] displayed an Antibacterial Activity (MIC's), B in data set [1] of 0.125 µg/mL. This compound registered an Antibacterial Activity (MIC's), D with Escherichia coli JUHL of 0.03 µg/mL. The Antibacterial Activity (MIC's), E in data set [2] was ≤ 0.004 µg/mL. Also, in data set [3], the Antibacterial Activity (MIC's), A was 0.015 µg/mL. The compound further showed an Antibacterial Activity (MIC's), F in data set [4] of 0.03 µg/mL.

In turn, `CNC1CCCc2sc(-c3ccc4c(=O)c(C(=O)O)cn(C5CC5)c4c3Cl)cc21.Cl` (centres unmarked) [Example 361, 8-chloro-1-cyclopropyl-7-(4-(methylamino)-4,5,6,7-tetrahydro-1-benzothien-2-yl)-4-oxo-1,4-dihydroquinoline-3-carboxylic acid hydrochloride] yielded an Antibacterial Activity (MIC's), B in data set [1] of 0.06 µg/mL. In the data set with Escherichia coli JUHL, the Antibacterial Activity (MIC's), D was 0.06 µg/mL. The compound further returned an Antibacterial Activity (MIC's), E in data set [2] of 0.015 µg/mL. Besides, the Antibacterial Activity (MIC's), A in data set [3] was found to be 0.015 µg/mL. In data set [4], this compound displayed an Antibacterial Activity (MIC's), F of 0.03 µg/mL.

With `Cc1c(F)c(-c2cc3c(s2)CCCC3N)nc2c1c(=O)c(C(=O)O)cn2C1CC1.Cl` (centres unmarked) [Example 367, 7-(4-amino-4,5,6,7-tetrahydro-1-benzothien-2-yl)-1-cyclopropyl-6-fluoro-5-methyl-4-oxo-1,4-dihydro-1,8-naphthyridine-3-carboxylic acid hydrochloride], in data set [1], the Antibacterial Activity (MIC's), B was found to be 0.125 µg/mL. The Antibacterial Activity (MIC's), D with Escherichia coli JUHL turned out to be 0.06 µg/mL. This compound also returned an Antibacterial Activity (MIC's), E in data set [2] of 0.03 µg/mL. The compound further had an Antibacterial Activity (MIC's), A in data set [3] of 0.015 µg/mL. Besides, the Antibacterial Activity (MIC's), F in data set [4] worked out at 0.03 µg/mL.

As for `Cc1c(-c2cc3c(s2)C(N)CCC3)c(F)cc2c(=O)c(C(=O)O)cn(C3CC3)c12.Cl` (centres unmarked) [Example 368, 7-(7-amino-4,5,6,7-tetrahydro-1-benzothien-2-yl)-1-cyclopropyl-6-fluoro-8-methyl-4-oxo-1,4-dihydroquinoline-3-carboxylic acid hydrochloride], the Antibacterial Activity (MIC's), B in data set [1] was 0.06 µg/mL. The Antibacterial Activity (MIC's), D in the data set on Escherichia coli JUHL is 0.03 µg/mL. Besides, the Antibacterial Activity (MIC's), E in data set [2] is ≤ 0.004 µg/mL. The compound further showed an Antibacterial Activity (MIC's), A in data set [3] of 0.015 µg/mL. Besides, the Antibacterial Activity (MIC's), F in data set [4] came to 0.03 µg/mL.

For the compound `Cc1c(-c2cc3c(s2)C(O)CCC3)c(F)cc2c(=O)c(C(=O)O)cn(C3CC3)c12` (centres unmarked) [Example 369, 1-cyclopropyl-6-fluoro-7-(7-hydroxy-4,5,6,7-tetrahydro-1-benzothien-2-yl)-8-methyl-4-oxo-1,4-dihydroquinoline-3-carboxylic acid], the Antibacterial Activity (MIC's), B in data set [1] stood at 0.03 µg/mL. The same compound displayed an Antibacterial Activity (MIC's), D with Escherichia coli JUHL of 0.06 µg/mL. The Antibacterial Activity (MIC's), E in data set [2] was ≤ 0.004 µg/mL. Besides, in data set [3], the Antibacterial Activity (MIC's), A was ≤ 0.004 µg/mL. This compound yielded an Antibacterial Activity (MIC's), F in data set [4] of 0.03 µg/mL.

On to `Cc1c(F)c(-c2cc3c(s2)C(N)CCC3)nc2c1c(=O)c(C(=O)O)cn2C1CC1.Cl` (centres unmarked) [Example 371, 7-(7-amino-4,5,6,7-tetrahydro-1-benzothien-2-yl)-1-cyclopropyl-6-fluoro-5-methyl-4-oxo-1,4-dihydro-1,8-naphthyridine-3-carboxylic acid hydrochloride], for which the Antibacterial Activity (MIC's), B in data set [1] stood at 0.03 µg/mL. This compound also registered an Antibacterial Activity (MIC's), D in the data set on Escherichia coli JUHL of 0.06 µg/mL. In addition, in data set [2], the Antibacterial Activity (MIC's), E turned out to be 0.03 µg/mL. Also, the Antibacterial Activity (MIC's), A in data set [3] was ≤ 0.004 µg/mL. Further, the Antibacterial Activity (MIC's), F in data set [4] was ≤ 0.004 µg/mL.

For orientation: melting point means the temperature of the solid-liquid transition.

Values taken from patent US20020049223A1, “Quinoline and naphthyridine carboxylic acid antibacterials” (priority 1999, published 2002).
